The source of these data is ChEMBL document CHEMBL1201862, “PubChem BioAssay data set” (2004).

SMILES strings stand for the structures.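 Compound exposure: 48 hours, 5 concentrations, 96-well plates. GI50: concentration for 50% inhibition of growth.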 Calls of active or inactive are those of the source. Cut-off read from the data, not from the text of the source: active = GI50 up to about 1.1 µM and inactive = higher.

Holding throughout (assay): NCI-60 cell line screen, 48 h
In assay [1] the test system is SK-OV-3.
The test system of assay [2] is TK-10.
For assay [3], the system named is PC-3.
For assay [4], the system named is HL-60.
Assay [5] relates to SK-MEL-2.
For assay [6], the system named is SF-295.
Assay [7] has as its system LOX IMVI.
In assay [8] the test system is EKVX.
Assay [9] has as its system OVCAR-8.
In assay [10] the test system is UO-31.
Assay [11] deals with UACC-62.
In assay [12] the test system is HOP-92.
Assay [13] relates to RPMI-8226.
For assay [14], the system named is IGROV-1.
Assay [15] concerns NCI-H23.
Assay [16] concerns DU-145.
Assay [17] has as its system MDA-MB-435.
Assay [18] relates to MOLT-4.
Assay [19] concerns OVCAR-4.
Assay [20] deals with HCC 2998.

For the compound `O=C1c2ccccc2-c2nc(-c3cccs3)cc3c2c1nc1ccccc13`, the GI50 in assay [1] is > 100 µM (inactive); in assay [2] it was > 100 µM (inactive); in [3], 12.6 µM (inactive); in assay [4], 5.42 µM (inactive); in [5], 13.6 µM (inactive); in assay [6], 27.8 µM (inactive). Moreover, the GI50 in [7] was 8.24 µM (inactive); in [8], 98.2 µM (inactive); in [9], 41.8 µM (inactive); in assay [10], 22.7 µM (inactive); in [11] it was 5.41 µM (inactive); in assay [12], > 100 µM (inactive). The GI50 was 23.2 µM (inactive) in assay [13]; 12.4 µM (inactive) in [14]; 11.9 µM (inactive) in assay [15]; 14.1 µM (inactive) in assay [16]; 2.01 µM (inactive) in assay [17]; 37.1 µM (inactive) in [18]. In addition, the GI50 is 56 µM (inactive) in [19] and 16.7 µM (inactive) in assay [20].

With `Nc1ncnc2c1ncn2C1C=CC(COS(N)(=O)=O)C1` (stereo not given), the GI50 in assay [1] was 52.7 µM (inactive); in assay [2], > 100 µM (inactive); in assay [3] it was 12 µM (inactive); in assay [4], 4.19 µM (inactive); in assay [5], 39.3 µM (inactive); in assay [6], 40.9 µM (inactive). In addition, the GI50 in assay [7] was 5.53 µM (inactive); in assay [8] it was > 100 µM (inactive); in assay [9], 13.1 µM (inactive); in assay [10] it was 79.1 µM (inactive); in assay [11], 20.6 µM (inactive); in assay [12], 15.7 µM (inactive). For the same compound, the GI50 in assay [13] is 2.93 µM (inactive); in assay [14] it was 34.2 µM (inactive); in assay [15], 9.77 µM (inactive); in assay [16] it was 66.8 µM (inactive); in assay [17] it was 35.2 µM (inactive); in [18] it was 7.85 µM (inactive). The GI50 in assay [19] is 34.3 µM (inactive); in [20], 35.7 µM (inactive).

Turning to `COC1=C(N=[N+]=[N-])C(=O)c2ncccc2C1=O`, the GI50 in [1] is 15.2 µM (inactive); in [2] it was 10.9 µM (inactive); in assay [3], 15.5 µM (inactive); in [4], 0.962 µM (active); in assay [5], 18.6 µM (inactive); in assay [6], 15.6 µM (inactive). For the same compound, the GI50 is 3.3 µM (inactive) in assay [7]; 8.61 µM (inactive) in assay [8]; 3.47 µM (inactive) in [9]; 14.4 µM (inactive) in assay [10]; 7.82 µM (inactive) in assay [11]; 1.29 µM (inactive) in assay [12]. Also, the GI50 in assay [13] is 1.88 µM (inactive); in assay [14], 5.38 µM (inactive); in assay [15] it was 5.36 µM (inactive); in assay [16], 20.8 µM (inactive); in assay [17], 2.12 µM (inactive); in assay [18], 0.887 µM (active). Moreover, the GI50 in assay [19] is 2.69 µM (inactive); in [20], 17.1 µM (inactive).

Regarding `CCC1c2[nH]c3ccccc3c2C[C@H]2C(=O)NC(Cc3ccccc3)C(=O)N12` (stereo not given in full), the GI50 was 44.7 µM (inactive) in [1]; 23.7 µM (inactive) in [2]; 20.8 µM (inactive) in [3]; 20.7 µM (inactive) in assay [4]; 20.9 µM (inactive) in [5]; 24.4 µM (inactive) in [6]. Moreover, the GI50 is 22.1 µM (inactive) in assay [7]; 30.3 µM (inactive) in assay [8]; 34.5 µM (inactive) in assay [9]; 30.8 µM (inactive) in [10]; 17.2 µM (inactive) in assay [11]; 34.2 µM (inactive) in [12]. Also, the GI50 in [13] was 20.2 µM (inactive); in assay [14] it was 28.8 µM (inactive); in assay [15], 37.1 µM (inactive); in [16] it was 40 µM (inactive); in assay [17], 20.2 µM (inactive); in [18] it was 21.4 µM (inactive). In addition, the GI50 is 33.6 µM (inactive) in assay [19] and 26 µM (inactive) in [20].

Regarding `CS(=O)(=O)c1ccc(C2=C(c3ccccc3)C(=O)OC2)cc1` [ROFECOXIB], the GI50 in assay [1], in assay [2], in [3], in assay [4], in assay [5] and in assay [6] was > 100 µM (inactive) in each case. For the same compound, the GI50 in [7], in assay [8], in assay [9], in [10], in assay [11] and in [12] was > 100 µM (inactive) throughout. Further, the GI50 in assay [13], in assay [14], in assay [15], in assay [16], in assay [17] and in [18] was > 100 µM (inactive) each time. Also, the GI50 in [19] and in assay [20] was > 100 µM (inactive) in each case.

As to `OCc1ccccc1O[C@H]1O[C@H](CO)[C@@H](O)[C@H](O)[C@H]1O`, the GI50 in assay [1], in assay [2], in [3], in assay [4], in assay [5] and in [6] was > 100 µM (inactive) each time. Further, the GI50 in assay [7], in assay [8], in assay [9], in assay [10], in assay [11] and in assay [12] was > 100 µM (inactive) each time. Further, the GI50 in assay [13], in assay [14], in assay [15], in assay [16], in [17] and in assay [18] was > 100 µM (inactive) in each case. For the same compound, the GI50 in assay [19] and in assay [20] was > 100 µM (inactive) each time.

In the case of `C[C@]12CC[C@@H]3c4ccc(O)cc4CC[C@H]3[C@@H]1CC[C@@H]2OC(=O)CCc1ccccc1`, the GI50 in assay [1] is 15.5 µM (inactive); in [2] it was 18.5 µM (inactive); in assay [3], 18.3 µM (inactive); in assay [4], 20.1 µM (inactive); in [5] it was 15.2 µM (inactive); in assay [6] it was 19.3 µM (inactive). Also, the GI50 is 18.2 µM (inactive) in assay [7]; 10.8 µM (inactive) in [8]; 22.8 µM (inactive) in assay [9]; 16 µM (inactive) in assay [10]; 13.9 µM (inactive) in assay [11]; 19.1 µM (inactive) in assay [12]. Further, the GI50 was 15.7 µM (inactive) in assay [13]; 20.8 µM (inactive) in assay [14]; 17.7 µM (inactive) in assay [15]; 19.5 µM (inactive) in assay [16]; 13.1 µM (inactive) in assay [17]; 17 µM (inactive) in assay [18]. In addition, the GI50 in assay [19] was 17.5 µM (inactive); in assay [20], 19.6 µM (inactive).

Take `COC(=O)N/N=C(\C)C(CN1CCOCC1)C(c1ccccc1)c1cc2ccccc2oc1=O` (stereo not given): the GI50 in assay [1] is > 100 µM (inactive); in assay [2], > 100 µM (inactive); in assay [3], > 100 µM (inactive); in assay [4], 36.3 µM (inactive); in assay [5], > 100 µM (inactive); in [6], > 100 µM (inactive). Besides, the GI50 in assay [7] is > 100 µM (inactive); in assay [8] it was > 100 µM (inactive); in [9], > 100 µM (inactive); in assay [10] it was > 100 µM (inactive); in [11], > 100 µM (inactive); in [12], 30.5 µM (inactive). Further, the GI50 in assay [13] is 25 µM (inactive); in assay [14] it was > 100 µM (inactive); in assay [15], > 100 µM (inactive); in assay [16] it was > 100 µM (inactive); in assay [17] it was > 100 µM (inactive); in assay [18], 44.2 µM (inactive). Further, the GI50 in assay [19] is 74.3 µM (inactive); in [20], > 100 µM (inactive).

Turning to `O=C1C(Nc2ccc(S(=O)(=O)Nc3cnc4ccccc4n3)cc2)=C/C(=N\c2ccc(S(=O)(=O)Nc3cnc4ccccc4n3)cc2)c2ccccc21`, the GI50 in assay [1] was 17.2 µM (inactive); in assay [2], 30.7 µM (inactive); in assay [3], 20.5 µM (inactive); in assay [4], 27.9 µM (inactive); in assay [5], 17.9 µM (inactive); in [6], 16.3 µM (inactive). For the same compound, the GI50 in assay [7] is 16.2 µM (inactive); in assay [8], 18.2 µM (inactive); in assay [9], 19.8 µM (inactive); in assay [10], 15.6 µM (inactive); in [11], 18.2 µM (inactive); in assay [12], 15 µM (inactive). In addition, the GI50 in [13] was 27.9 µM (inactive); in assay [14] it was 19.1 µM (inactive); in assay [15], 18.7 µM (inactive); in [16], 16.9 µM (inactive); in [17], 18.9 µM (inactive); in [18], 25 µM (inactive). Also, the GI50 in [19] is 20.8 µM (inactive); in assay [20], 17.5 µM (inactive).

For the compound `S=C(/N=c1\sc(NCc2ccccc2)nc2sc3c(c12)CCN(N1CCc2c(sc4nc(NCc5ccccc5)s/c(=N\C(=S)NCc5ccccc5)c24)C1)C3)NCc1ccccc1`, the GI50 was 53.2 µM (inactive) in assay [1]; 48.9 µM (inactive) in assay [2]; 17 µM (inactive) in assay [3]; 25.4 µM (inactive) in [4]; 58.3 µM (inactive) in assay [5]; 59.3 µM (inactive) in assay [6]. The GI50 in assay [7] was 15 µM (inactive); in assay [8] it was 19.9 µM (inactive); in assay [9] it was 20.9 µM (inactive); in [10] it was 15.4 µM (inactive); in assay [11], 38.6 µM (inactive); in [12], 39.4 µM (inactive). Further, the GI50 in assay [13] is 14.6 µM (inactive); in assay [14] it was 28 µM (inactive); in [15], 24.6 µM (inactive); in assay [16] it was 45 µM (inactive); in [17], 42.9 µM (inactive); in assay [18] it was 14.3 µM (inactive). Further, the GI50 in [19] was 36.7 µM (inactive); in assay [20] it was 44.7 µM (inactive).
